The values below come from US8088791B2, “Antibacterial agents” (Biots Scientific Management Pty Ltd, priority 2006, dated 2012).

The test system of series [1] is various bacterial species. Briefly: Minimum Inhibitory Concentration (MIC) testing, broth microdilution, other bacterial species. Format: cell-based. The protocol: Compounds of this invention were tested for antimicrobial activity by susceptibility testing in liquid media. MICs for compounds against each strain were determined by a broth microdilution method according to the National Committee for Clinical Laboratory Standards (NCCLS) guidelines. (NCCLS. 2000. Methods for dilution antimicrobial susceptibility tests for bacteria that grow aerobically—fifth edition. Approved standard M7-A5. NCCLS, Wayne, Pa.)
Briefly, test compounds are prepared in 100 μl of 1.6% DMSO solution in multiwell plates. Several bacterial colonies from a freshly streaked plate are transferred to an appropriate rich broth, such as Mueller Hinton. The cell suspension is adjusted to an optical density of 0.09 and further diluted 1:100 with warm 2× broth. This cell suspension is dispensed into the wells containing compound solution so that the final volume is 200 μl. The plates are incubated overnight (16-20 hours) at 37° C. and turbidity is scored by eye and quantified spectrophotometrically. The MIC is defined as the lowest concentration inhibiting visible growth.
Some of the Examples were also tested for activity against other bacterial species. […] Activities were again scored as ‘A’ if the MIC was ≦8 micrograms/ml, ‘B’ if the MIC was 16 to 64 micrograms/ml and ‘C’ if the MIC was greater than 64 micrograms/ml.
On the technique in general: Broth dilution looks for growth in wells or tubes with falling amounts of substance.

In series [2] the test system is Staphylococcus aureus ATCC29213. Put plainly: Minimum Inhibitory Concentration (MIC) testing, broth microdilution, Staphylococcus aureus. To be noted: Staphylococcus aureus ATCC29213; read-out: Staphylococcus aureus MICs Activity. It is filed as cell-based. An outline of the steps:
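Broth microdilution per NCCLS M7-A5 in Mueller Hinton broth, with compound in 1.6% DMSO and inoculum at OD 0.09 diluted 1:100. Plates incubated 16–20 h at 37°C. MIC is the lowest concentration with no visible growth; scored A ≤8, B 16–64, C >64 μg/ml.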

The next series concerns Bacillus subtilis 168CA. Briefly: Minimum Inhibitory Concentration (MIC) testing, broth microdilution, Bacillus subtilis. Format: cell-based. The following applies: Bacillus subtilis 168CA; read-out: Bacillus subtilis MICs Activity. In outline: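 MICs were scored A (≦8 μg/ml), B (16–64 μg/ml) or C (>64 μg/ml), read as the lowest concentration preventing visible growth by eye and spectrophotometry. Plates incubated overnight (16–20 h) at 37 °C, inoculum OD 0.09 diluted 1:100 in 2× broth, per NCCLS guidelines.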

Another series has as its system Staphylococcus aureus. Briefly: mouse Staphylococcus aureus septicaemia model of infection. The following applies: survival at day 7 of infected mice; single intraperitoneal dose of 100 mg/kg at 1 hour after intraperitoneal inoculation with a lethal dose of Staphylococcus aureus. Format: in vivo. The protocol: Some of the Examples were also tested for activity in a mouse Staphylococcus aureus septicaemia model of infection.

Setting [3] is: Bacillus cereus, ATCC14579, read-out: MIC Activity Bacillus cereus ATCC 14579.
Setting [4] is: Staphylococcus saprophyticus, ATCC15305, read-out: MIC Activity Staphylococcus saprophyticus ATCC 15305.
Setting [5] is: Staphylococcus epidermidis, ATCC12228, read-out: MIC Activity Staphylococcus epidermidis ATCC 12228.
[6] abbreviates: Staphylococcus haemolyticus, ATCC29970, read-out: MIC Activity Staphylococcus haemolyticus ATCC 29970.

Values after ≈ are worked out from the molar mass of the structure shown. Like-named read-outs stand apart in the source and are kept apart here.

In general, melting point refers to the temperature, or range, at which the solid turns liquid. Take `NC(=O)c1c(F)ccc(OCc2cc3cc(C(F)(F)F)ccc3s2)c1F` [Example 208, 2,6-Difluoro-3-[5-(trifluoromethyl)-1-benzothiophen-2-yl]methoxybenzenecarboxamide]: the melting point lay in the range of 150 to 152 °C. Moreover, the MIC in series [1] (setting [3]) is under 8 µg/mL. In addition, the MIC in series [1] (setting [4]) is under 8 µg/mL. The MIC in series [2] was under 8 µg/mL. Also, the MIC in the series with Bacillus subtilis 168CA was under 8 µg/mL.
For `COc1ccc(-c2noc(COc3ccc(F)c(C(N)=O)c3F)n2)cc1` [Example 241, 2,6-Difluoro-3-[3-(4-methoxyphenyl)-1,2,4-oxadiazol-5-yl]methoxybenzenecarboxamide], the Percent survival with Staphylococcus aureus is 100%. For the same compound, the MIC (in series [2]; with Bacillus subtilis 168CA) was under 8 µg/mL each time.
`NC(=O)c1cccc(OCCCCC/C=C\c2ccsc2)c1` [Example 62, 3-{[(Z)-7-(3-Thienyl)-6-heptenyl]oxy}benzenecarboxamide]: the melting point was 71 to 73 °C. Moreover, the MIC in series [2] was under 8 µg/mL. Moreover, the MIC in the series with Bacillus subtilis 168CA was under 8 µg/mL.
In turn, `C#CCCCCCCOC(=O)COc1ccc(F)c(C(N)=O)c1F` [Example 90, 7-Octynyl 2-[3-(aminocarbonyl)-2,4-difluorophenoxy]acetate] registered a melting point of 130 to 132 °C. Besides, the MIC in series [2] was under 8 µg/mL. Moreover, in the series on Bacillus subtilis 168CA, the MIC is under 8 µg/mL.
Take `CCCCCCOC(=O)COc1ccc(F)c(C(N)=O)c1F` [Example 89, Hexyl 2-[3-(aminocarbonyl)-2,4-difluorophenoxy]acetate]: the melting point was 108 °C. Also, the MIC in series [2] was under 8 µg/mL. Also, the MIC with Bacillus subtilis 168CA is under 8 µg/mL.
As for `NC(=O)c1c(F)ccc(OCc2nc(-c3ccc(Cl)cc3)cs2)c1F` [Example 106, 3-[4-(4-Chloro-phenyl)-thiazol-2-ylmethoxy]2,6-difluoro-benzamide], the MIC (in series [1] (setting [3]); in series [1] (setting [5]); in series [1] (setting [6]); in series [1] (setting [4]); in series [2]; in the series with Bacillus subtilis 168CA) was under 8 µg/mL each time. The Percent survival in the series on Staphylococcus aureus stood at 100%.
As to `NC(=O)c1ccnc(OCc2nc3cc(Cl)ccc3s2)c1` [Example 222, 2-[(5-Chloro-1,3-benzothiazol-2-yl)methoxy]isonicotinamide], the melting point is 220 to 222 °C. In addition, in series [2], the MIC is under 8 µg/mL. In addition, the MIC in the series on Bacillus subtilis 168CA was under 8 µg/mL.
On to `Cc1ccc(-c2noc(COc3ccc(F)c(C(N)=O)c3F)n2)cc1` [Example 247, 2,6-Difluoro-3-[3-(4-methylphenyl)-1,2,4-oxadiazol-5-yl]methoxybenzenecarboxamide], for which, in the series on Staphylococcus aureus, the Percent survival was 100%. Further, the MIC (in series [2]; with Bacillus subtilis 168CA) was under 8 µg/mL in each case.
Turning to `NC(=O)c1c(F)ccc(OCc2nc3ccc(Cl)cc3s2)c1F` [Example 227, 3-[(6-Chloro-1,3-benzothiazol-2-yl)methoxy]-2,6-difluorobenzenecarboxamide], the melting point lay within 190 to 191 °C. Besides, the MIC in series [2] was under 8 µg/mL. In the series with Bacillus subtilis 168CA, the MIC was under 8 µg/mL.
`NC(=O)c1c(F)ccc(OCc2nc(-c3ccc(Cl)cc3)no2)c1F` [Example 246, 3-[3-(4-Chlorophenyl)-1,2,4-oxadiazol-5-yl]methoxy-2,6-difluorobenzenecarboxamide]: the MIC (in series [1] (setting [3]); in series [1] (setting [5]); in series [1] (setting [6]); in series [1] (setting [4]); in series [2]; in the series on Bacillus subtilis 168CA) was under 8 µg/mL throughout. In the series on Staphylococcus aureus, this compound came in with a Percent survival of 100%.
The compound `CCCCCCCCCOc1cc(C(N)=O)ccn1` [Example 94, 2-(Nonyloxy)isonicotinamide] returned a melting point of 108 to 110 °C. Moreover, the MIC in series [2] is under 8 µg/mL. Further, the MIC in the series on Bacillus subtilis 168CA was under 8 µg/mL.
In turn, `NC(=O)c1c(F)ccc(OCc2nc3cc(-c4ccncc4)ccc3s2)c1F` [Example 232, 2,6-Difluoro-3-[5-(4-pyridinyl)-1,3-benzothiazol-2-yl]methoxybenzenecarboxamide] showed a melting point of 255 to 258 °C. In addition, the MIC in series [2] is under 8 µg/mL. For the same compound, the MIC in the series on Bacillus subtilis 168CA fell in the range of 16 to 64 µg/mL (≈ 40.3 to 161 µM).
Regarding `CCCCCCCCCOc1ccc(Cl)c(C(N)=O)c1F` [Example 76, 6-Chloro-2-fluoro-3-(nonyloxy)benzenecarboxamide], the melting point fell in the range of 75 to 77 °C. Moreover, the MIC in series [2] was under 8 µg/mL. Also, in the series with Bacillus subtilis 168CA, the MIC is under 8 µg/mL.
Turning to `CCc1cccc2sc(COc3ccc(F)c(C(N)=O)c3F)nc12` [Example 223, 3-[(4-Ethyl-1,3-benzothiazol-2-yl)methoxy]-2,6-difluorobenzenecarboxamide], the melting point lay in the range of 184 to 186 °C. Also, in series [2], the MIC is under 8 µg/mL. The MIC in the series on Bacillus subtilis 168CA was under 8 µg/mL.
On to `CCCCOC(=O)C=CCOc1ccc(F)c(C(N)=O)c1F` [Example 180, Butyl 4-[3-(aminocarbonyl)-2,4-difluorophenoxy]-2-butenoate], for which the melting point was under 40 °C. In addition, in series [2], the MIC is 16 to 64 µg/mL (≈ 51.1 to 204 µM). The MIC with Bacillus subtilis 168CA is under 8 µg/mL.
Turning to `NC(=O)c1c(F)ccc(OCc2nc(-c3ccc(O)cc3)no2)c1F` [Example 242, 2,6-Difluoro-3-[3-(4-hydroxyphenyl)-1,2,4-oxadiazol-5-yl]methoxybenzenecarboxamide], the melting point was 209 to 210 °C. Besides, in series [1] (setting [5]), the MIC is under 8 µg/mL. Also, in series [1] (setting [6]), the MIC is under 8 µg/mL. Also, the MIC in series [2] is under 8 µg/mL. Also, the MIC in the series with Bacillus subtilis 168CA is under 8 µg/mL.
For `CCCCCCOc1ccc(F)c(C(N)=O)c1Cl` [Example 77, 2-Chloro-6-fluoro-3-(hexyloxy)benzenecarboxamide], the melting point is 66 to 68 °C. Also, the MIC in series [2] was 16 to 64 µg/mL (≈ 58.5 to 234 µM). The MIC with Bacillus subtilis 168CA was in the range of 16 to 64 µg/mL (≈ 58.5 to 234 µM).
In turn, `NC(=O)c1c(F)ccc(OCc2nc3ccc(OC(F)(F)F)cc3s2)c1F` [Example 230, 2,6-Difluoro-3-[6-(trifluoromethoxy)-1,3-benzothiazol-2-yl]methoxybenzenecarboxamide] showed a melting point of 174 to 175 °C. Besides, in series [2], the MIC is under 8 µg/mL. For the same compound, in the series on Bacillus subtilis 168CA, the MIC is under 8 µg/mL.
